From patent publication US8044100B2, “Methods and compositions for treating amyloid-related diseases” (Bellus Health Inc., priority 2004, dated 2011)

Experiments:
[1] = tested on: amyloid plaques in the brains of TgCRND8 mice; experiment: ThioS histology of brain sections of TgCRND8 mice: number of plaques and area occupied; type: in vivo, mouse; conditions: for Change in Plaque Area / Change in Plaque Number: 16 wks, ThioS
Method: For the ThioS studies, the plaques in the brains of the mice were quantified as follows. Mice were transcardially perfused with saline solution. Brains were dissected out and separated in 2 hemispheres. The left hemisphere was immersed in freshly-prepared 4% paraformaldehyde for 3 hrs at 4° C., then transfered into 30% sucrose at 4° C. When cryoprotection was achieved (24-48 hours), brains were frozen in isopentane at −45° C. and subsequently stored at −80° C. until sectioning. Coronal 40 μm-thick sections were performed, and stained with thioflavin S (1% solution in water) for 8 min. After differentiation of the thioflavin S staining, sections were counterstained with hematoxylin for 5 minutes. Two sets of pictures were captured simultaneously. A first set of pictures was captured under brightfield illumination to obtain morphological details of the section; a second set of pictures was captured under a green, specific, fluorescent filter (fluorescein filter, Ex 495 nm, Em 525 nm). Image analysis to quantify the number of plaques and the area occupied by these plaques was performed using Image Pro Plus software (Media Cybernetics, MD, USA).
Increases in the areas and numbers of plaques are indicated using “+” symbols, while decreases in the areas and numbers of the plaques are indicated using “−” symbols.
Specifically, increases in the areas and numbers of plaques (relative to vehicle treated control) of 10 to 19.99% are scored as “+”. Decreases in the areas and numbers of plaques of 10 to 19.99% are scored as “−”. Additionally, changes of 9.99% or less in either direction are scored as “0”.

[2] = tested on: Aβ peptides (Aβ40, Aβ42) in the plasma and brain of TgCRND8 mice; experiment: Short term treatment (14 or 28 days) in TgCRND8 mice: Aβ levels in plasma and brain by ELISA; type: in vivo, mouse; conditions: for Aβ40 Change Insoluble / Aβ42 Change Insoluble / Aβ42 Change Soluble / Aβ40 Change Soluble: brain homogenate; for Aβ42 Change / Aβ40 Change: plasma;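 on Aβ40 Change Insoluble: symbols grade percent change in Aβ versus untreated control with plus for increase and minus for decrease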;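 on Aβ40 Change Soluble: symbols grade percent change in Aβ versus untreated control with plus for increase and minus for decrease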;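 on Aβ42 Change Insoluble: symbols grade percent change in Aβ versus untreated control with plus for increase and minus for decrease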
Method: The short term therapeutic effect of 19 compounds of the invention was studied. These compounds were administered over a 14 or 28 day period at the end of which the levels of Aβ peptides in the plasma and brain of TgCRND8 animals were determined.
Male and female transgenic mice from the 3rd and 4th B6C3F1 generations were used in this example and given daily subcutaneous or oral administrations of one of a series of compounds for 14 or 28 days. The following abbreviations are used to designate these animals from the 3rd and 4th generation backcross in the present protocol: TgCRND8-2.B6C3F1(N3); TgCRND8-2.B6C3F1 (N4).
Baseline animals (Group 1) consisted of naive TgCRND8-2. B6C3F1(N3) at 11±1 weeks of age. These mice were used to determine the Aβ levels in the plasma and brain of naive transgenic animals at the initiation of treatment.
Starting at 11 weeks of age (±1 week) animals received daily administration of their respective treatment for a period of 14 or 28 days (groups 2-21), at a dose of 250 mg/kg at 10 ml/kg or of vehicle only (water; group 2) or 1% methyl cellulose only (group 21). The route of administration was subcutaneous for water-soluble compounds and oral for compounds solubilized in methylcellulose 1%. (MC 1%). At the end of the treatment periods, plasma and perfused brains were collected for quantification of Aβ levels.
At 11±1 weeks of age for the Baseline group, and at the end of the treatment period (14 or 28 days) for Groups 2 to 21, at 24 hours after the last compound administration animals were sacrificed and samples collected. An approximate blood volume of 500 μl was collected from the orbital sinus and kept on ice until centrifugation at 4° C. at a minimum speed of 3,000 rpm for 10 minutes. Plasma samples were immediately frozen and stored at −80° C. pending analysis. The brains were removed, frozen, and stored at −80° C. awaiting analysis.
Brains were weighted frozen and homogenized with 4 volumes of ice cold 50 mM Tris-Cl pH 8.0 buffer with protease inhibitor cocktail (4 mL of buffer for 1 g of wet brain). Samples were spun at 15000 g for 20 minutes and the supernatants were transferred to fresh tubes. One hundred fifty (150) μl from each supernatant were mixed with 250 μl of 8M guanidine-HCL/50 mM Tris-HCL pH 8.0 (ratio of 0.6 vol supernatant:1 vol 8M guanidium/Tris-HCL 50 mM pH8.0) and 400 μL 5 M guanidium/Tris-HCL 50 mM pH8.0 were added. The tubes were vortexed for 30 seconds and frozen at −80° C. In parallel, pellets were treated with 7 volumes of 5 M guanidine-HCL/50 mM Tris-HCL pH 8.0 (7 mL of guanidine for 1 g of wet brain), vortexed for 30 seconds and frozen at −80° C. Samples were thawed at room temperature, sonicated at 80° C. for 15 minutes and frozen again. This cycle was repeated 3 times to ensure homogeneity and samples were returned to −80° C. pending analysis.
Aβ levels were evaluated in plasma and brain samples by ELISA using Human Aβ40 and Aβ42 Fluorometric ELISA kits from Biosource (Cat. No. 89-344 and 89-348) according to manufacturer's recommended procedures. In short, samples were thawed at room temperature, sonicated for 5 minutes at 80° C. (sonication for brain homogenates; no sonication for plasma samples) and kept on ice. Aβ peptides were captured using 100 μl of the diluted samples to the plate and incubated without shaking at 4° C. overnight. The samples were aspirated and the wells were rinsed 4 times with wash buffer obtained from the Biosource ELISA kit. The anti-Aβ40 or anti-Aβ42 rabbit polyclonal antiserum (specific for the Aβ40 or Aβ42 peptide) was added (100 μl) and the plate was incubated at room temperature for 2 hours with shaking. The wells were aspirated and washed 4 times before adding 100 μl of the alkaline phosphatase labeled anti-rabbit antibody and incubating at room temperature for 2 hours with shaking. The plates were then rinsed 5 times and the fluorescent substrate (100 μl) was added to the plate. […]

[3] = Day 14, methylcellulose group, daily oral
[4] = Day 28, methylcellulose group, daily oral
[5] = 30 mg/kg, ThioS staining of brain sections, preliminary
[6] = Day 14, vehicle group, 250 mg/kg daily
[7] = Day 28, vehicle group, 250 mg/kg daily
[8] = Day 14, vehicle (water) group, 250 mg/kg daily subcutaneous

O=S(=O)(O)CCCNC12CC3CC(CC(C3)C1)C2 [BW] was tested, and the “Change in Plaque Area” value ([1]; 30 mg/kg) was 0 (changes of 9.99% or less in either direction), the “Change in Plaque Number” value ([1]; 30 mg/kg) was 0 (changes of 9.99% or less in either direction) and the “Change in Plaque Area” value ([1]; 100 mg/kg) was 0 (changes of 9.99% or less in either direction). The “Change in Plaque Number” value ([1]; 100 mg/kg) was “− (Decreases in the areas and numbers of plaques of 10 to 19.99%)”, the “Aβ40 Change Insoluble” value [2, 3] was “−−− (decreases of 39% or more)” and the “Aβ42 Change Insoluble” value [2, 3] was “−−− (decreases of 39% or more)”. For the same compound, the “Aβ42 Change Soluble” value [2, 3] was “−− (decreases of 20 to 38%)”, the “Aβ40 Change Insoluble” value [2, 4] was “− (Decreases in the levels of Aβ of 5 to 19%)” and the “Aβ40 Change Soluble” value [2, 4] was “− (Decreases in the levels of Aβ of 5 to 19%)”. The “Aβ42 Change Insoluble” value [2, 4] was “−− (decreases of 20 to 38%)”, the “Aβ42 Change Soluble” value [2, 4] was “− (Decreases in the levels of Aβ of 5 to 19%)” and the “Aβ42 Change” value [2, 4] was “+ (increases in the levels of Aβ (relative to untreated control) of 20 to 39%)”.
In the case of CC(C)(C)NCCCS(=O)(=O)O [BX, 3-(t-butyl)amino-1-propanesulfonic acid], the “Change in Plaque Area” value ([1]; 30 mg/kg) is reported as “− (Decreases in the areas and numbers of plaques of 10 to 19.99%)”, the “Change in Plaque Number” value ([1]; 30 mg/kg) is reported as “− (Decreases in the areas and numbers of plaques of 10 to 19.99%)” and the “area occupied by the plaques” value [1, 5] is reported as “decreased”. The number of plaques [1, 5] was “decreased”, the “Change in Plaque Area” value ([1]; 100 mg/kg) was “+ (increases in the areas and numbers of plaques (relative to vehicle treated control) of 10 to 19.99%)” and the “Change in Plaque Number” value ([1]; 100 mg/kg) was 0 (changes of 9.99% or less in either direction). For the same compound, the “levels of Aβ peptides in the plasma” value ([2]; after 14 and 28 days of treatment) was “significant increase”, the “Aβ40 Change Insoluble” value [2, 6] was “−−− (decreases of 39% or more)” and the “Aβ40 Change Soluble” value [2, 6] was “− (Decreases in the levels of Aβ of 5 to 19%)”. For the same compound, the “Aβ42 Change Insoluble” value [2, 6] was “−−− (decreases of 39% or more)”, the “Aβ42 Change Soluble” value [2, 6] was “−− (decreases of 20 to 38%)” and the “Aβ40 Change Insoluble” value [2, 7] was “−−− (decreases of 39% or more)”. For the same compound, the “Aβ40 Change Soluble” value [2, 7] was “−−− (decreases of 39% or more)”, the “Aβ42 Change Insoluble” value [2, 7] was “− (Decreases in the levels of Aβ of 5 to 19%)” and the “Aβ42 Change Soluble” value [2, 7] was “−− (decreases of 20 to 38%)”. The “Aβ40 Change” value [2, 8] was “+++ (increases of 70% or higher)”, the “Aβ42 Change” value [2, 8] was “++ (increases of 40 to 69%)” and the “Aβ40 Change” value ([2]; Day 28, vehicle (water) group, 250 mg/kg daily subcutaneous) was “+++ (increases of 70% or higher)”.
